Test results: ChEMBL document CHEMBL1201862, “PubChem BioAssay data set” (2004)
Structures can show the parent of a compound that is named as a salt. Activity calls are given as the source filed them.

What was measured:
[1] = molecular target: T1, RNA-binding protein pos-1 (Caenorhabditis elegans, UniProt G5EF15); experiment: inhibitors of POS-1/mex-3 RNA binding, dose response, biochemical, fluorescence polarization (AID 1964);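 note: purified POS-1 fused to maltose binding protein made in E. coli; potency of compounds blocking POS-1 binding to fluorescent RNA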
T1 sequence (G5EF15 whole entry): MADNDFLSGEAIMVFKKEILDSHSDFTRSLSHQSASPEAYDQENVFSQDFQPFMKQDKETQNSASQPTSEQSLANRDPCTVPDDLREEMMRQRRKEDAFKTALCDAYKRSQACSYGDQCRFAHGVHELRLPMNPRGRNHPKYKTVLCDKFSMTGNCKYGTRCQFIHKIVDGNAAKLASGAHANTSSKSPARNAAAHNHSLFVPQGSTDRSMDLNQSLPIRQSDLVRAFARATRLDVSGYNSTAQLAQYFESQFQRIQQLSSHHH

BJ [2] = experiment: cytotoxicity toward BJ-TERT fibroblasts, dose response, cell-based, RAS-independent, luminescence (AID 1933); format: functional; conditions: Homo sapiens
[3] = molecular target: T2, Zinc finger protein mex-5 (Caenorhabditis elegans, UniProt Q9XUB2); experiment: MEX-5/TCR-2 RNA interaction inhibitors, dose response, biochemical, C. elegans, fluorescence polarization (AID 1960)
T2 sequence (Q9XUB2 whole entry): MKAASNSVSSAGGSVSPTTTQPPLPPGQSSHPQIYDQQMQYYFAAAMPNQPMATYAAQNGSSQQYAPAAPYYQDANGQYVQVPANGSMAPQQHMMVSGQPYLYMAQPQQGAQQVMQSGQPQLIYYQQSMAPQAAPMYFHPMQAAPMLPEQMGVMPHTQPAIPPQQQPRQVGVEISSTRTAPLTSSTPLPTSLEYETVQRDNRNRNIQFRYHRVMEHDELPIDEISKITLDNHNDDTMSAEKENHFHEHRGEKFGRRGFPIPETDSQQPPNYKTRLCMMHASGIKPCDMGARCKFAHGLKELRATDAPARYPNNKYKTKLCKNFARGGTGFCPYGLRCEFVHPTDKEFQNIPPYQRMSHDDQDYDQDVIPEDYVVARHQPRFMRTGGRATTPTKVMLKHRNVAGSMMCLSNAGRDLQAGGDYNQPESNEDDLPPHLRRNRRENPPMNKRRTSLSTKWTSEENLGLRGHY

BJ [4] = experiment: cells; format: functional, cell-based; conditions: Homo sapiens
BJ [5] = experiment: cytotoxicity toward BJ-TERT-LT-ST fibroblasts, dose response, cell-based, RAS-independent, luminescence (AID 1935); format: functional; conditions: Homo sapiens;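 note: BJ fibroblasts immortalized with TERT plus LT and ST oncogenes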
[6] = cytotoxicity toward DRD oncogenic fibroblasts, dose response, cell-based, non-viral oncogenic, luminescence (AID 1934); format: functional; conditions: Homo sapiens
[7] = molecular target: T3, Replicative DNA helicase DnaB (Mycobacterium tuberculosis, UniProt P9WMR3); experiment: DnaB intein splicing inhibitors, dose response, biochemical, cell-free fluorescence (AID 449749); format: functional
T3 sequence (P9WMR3 whole entry): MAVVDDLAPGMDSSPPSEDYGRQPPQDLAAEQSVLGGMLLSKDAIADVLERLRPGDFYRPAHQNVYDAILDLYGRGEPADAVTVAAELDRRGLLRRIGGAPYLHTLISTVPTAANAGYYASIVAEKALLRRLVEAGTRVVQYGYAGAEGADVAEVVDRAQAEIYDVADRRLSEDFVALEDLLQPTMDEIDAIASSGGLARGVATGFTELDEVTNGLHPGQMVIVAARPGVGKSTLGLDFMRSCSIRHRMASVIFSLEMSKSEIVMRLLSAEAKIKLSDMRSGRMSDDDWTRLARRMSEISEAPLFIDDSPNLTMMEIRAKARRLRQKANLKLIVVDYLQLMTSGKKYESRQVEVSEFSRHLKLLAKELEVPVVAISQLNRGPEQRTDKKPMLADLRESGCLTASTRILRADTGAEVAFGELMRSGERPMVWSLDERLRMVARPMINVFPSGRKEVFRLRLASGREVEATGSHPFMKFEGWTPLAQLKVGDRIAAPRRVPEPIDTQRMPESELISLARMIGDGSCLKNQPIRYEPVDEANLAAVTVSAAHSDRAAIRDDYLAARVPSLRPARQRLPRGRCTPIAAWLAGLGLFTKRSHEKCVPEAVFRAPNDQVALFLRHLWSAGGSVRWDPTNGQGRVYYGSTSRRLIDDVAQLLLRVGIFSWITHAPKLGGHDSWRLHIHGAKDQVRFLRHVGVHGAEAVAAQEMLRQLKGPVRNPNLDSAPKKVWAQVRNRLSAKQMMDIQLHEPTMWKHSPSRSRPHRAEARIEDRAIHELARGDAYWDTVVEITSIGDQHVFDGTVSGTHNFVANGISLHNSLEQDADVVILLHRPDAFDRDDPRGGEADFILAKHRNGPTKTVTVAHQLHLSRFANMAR

Vero = Vero cell cytotoxicity, cytotoxicity control for flavivirus capping enzyme inhibitors (AID 588742); format: functional; conditions: Chlorocebus sabaeus
Protein RecA = molecular target: T4, Protein RecA (Mycobacterium tuberculosis, UniProt P9WHJ3); experiment: Fluorescence Cell-Free Homogeneous Dose Retest to Identify Inhibitors of RecA-Intein Splicing Activity. [Related pubchem assays (depositor defined):AID2097, AID2223, AID489010, AID492950]; format: functional
T4 sequence (P9WHJ3 whole entry): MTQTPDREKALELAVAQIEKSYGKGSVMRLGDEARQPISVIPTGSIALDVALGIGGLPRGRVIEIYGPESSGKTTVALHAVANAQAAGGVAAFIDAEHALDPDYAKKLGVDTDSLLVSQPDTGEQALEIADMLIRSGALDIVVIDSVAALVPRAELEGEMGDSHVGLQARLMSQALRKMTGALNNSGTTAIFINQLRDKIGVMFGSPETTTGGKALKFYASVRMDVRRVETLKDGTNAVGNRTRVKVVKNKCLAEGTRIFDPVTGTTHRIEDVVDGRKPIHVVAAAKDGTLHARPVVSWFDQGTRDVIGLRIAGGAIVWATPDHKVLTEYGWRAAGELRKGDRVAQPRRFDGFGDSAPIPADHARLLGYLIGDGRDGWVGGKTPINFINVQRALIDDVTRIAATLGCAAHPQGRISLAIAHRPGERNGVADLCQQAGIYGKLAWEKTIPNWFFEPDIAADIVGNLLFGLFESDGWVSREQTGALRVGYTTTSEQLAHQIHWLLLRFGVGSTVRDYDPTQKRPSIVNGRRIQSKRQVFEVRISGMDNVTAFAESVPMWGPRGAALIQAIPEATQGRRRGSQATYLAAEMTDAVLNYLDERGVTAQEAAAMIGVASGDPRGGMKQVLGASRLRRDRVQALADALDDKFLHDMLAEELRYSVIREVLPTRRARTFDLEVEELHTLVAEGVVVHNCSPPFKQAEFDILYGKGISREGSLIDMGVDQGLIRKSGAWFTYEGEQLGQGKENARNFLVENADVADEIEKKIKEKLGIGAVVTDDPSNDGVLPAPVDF

Genome polyprotein = Genome polyprotein (dengue virus type 2, UniProt P29990); experiment: Dengue-2 NS5 methyltransferase inhibitors, primary screen, biochemical, confirmation dose response (AID 588689); format: functional
Genome polyprotein, sequence (P29990 2492-3391 limits assumed): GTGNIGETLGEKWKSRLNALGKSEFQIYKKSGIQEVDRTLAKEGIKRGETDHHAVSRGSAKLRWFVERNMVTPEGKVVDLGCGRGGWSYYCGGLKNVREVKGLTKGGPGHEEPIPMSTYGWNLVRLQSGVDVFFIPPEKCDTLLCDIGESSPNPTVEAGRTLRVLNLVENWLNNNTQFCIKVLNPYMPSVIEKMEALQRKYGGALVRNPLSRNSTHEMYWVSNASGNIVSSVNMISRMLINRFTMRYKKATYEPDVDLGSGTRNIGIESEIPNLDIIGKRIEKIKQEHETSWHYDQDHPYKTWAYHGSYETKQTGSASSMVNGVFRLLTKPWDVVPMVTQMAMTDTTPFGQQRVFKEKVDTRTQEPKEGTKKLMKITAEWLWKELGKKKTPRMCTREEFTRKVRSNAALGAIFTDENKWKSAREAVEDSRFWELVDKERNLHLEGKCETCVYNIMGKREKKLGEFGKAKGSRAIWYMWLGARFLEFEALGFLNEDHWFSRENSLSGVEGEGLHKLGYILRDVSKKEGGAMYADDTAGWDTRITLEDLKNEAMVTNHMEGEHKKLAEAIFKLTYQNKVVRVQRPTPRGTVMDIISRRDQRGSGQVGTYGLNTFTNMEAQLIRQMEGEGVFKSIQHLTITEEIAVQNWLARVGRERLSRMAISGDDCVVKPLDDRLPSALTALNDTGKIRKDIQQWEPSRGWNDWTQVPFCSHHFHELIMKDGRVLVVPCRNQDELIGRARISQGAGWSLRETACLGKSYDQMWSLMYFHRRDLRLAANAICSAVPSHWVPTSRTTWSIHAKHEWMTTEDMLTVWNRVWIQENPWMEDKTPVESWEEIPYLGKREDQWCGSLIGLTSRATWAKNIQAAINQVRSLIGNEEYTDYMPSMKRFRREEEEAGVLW

Protein Tat = Protein Tat (Human immunodeficiency virus type 1 group M subtype B (isolate HXB2)(HIV-1), UniProt P04608); format: functional;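 note: tat binding to TAR RNA read out by fluorescence polarization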
Protein Tat, sequence (P04608 whole entry): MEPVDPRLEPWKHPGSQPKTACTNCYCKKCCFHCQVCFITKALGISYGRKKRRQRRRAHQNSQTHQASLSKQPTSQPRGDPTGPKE

[8] = THP-1 cell cytotoxicity, dose response, cytotoxicity control for Vif-APOBEC3G degradation inhibitor project, THP-1 cells (AID 1117359); format: functional; conditions: Human immunodeficiency virus 1, THP-1
[9] = molecular target: Glutathione-S-transferase (Schistosoma japonicum, UniProt Q26513); experiment: biotin-GST/anti-GST TR-FRET signal inhibitors, dose response, artefact control for Vif-APOBEC3G degradation inhibitor project, biochemical (AID 1117362); format: functional
Glutathione-S-transferase, sequence (Q26513 whole entry): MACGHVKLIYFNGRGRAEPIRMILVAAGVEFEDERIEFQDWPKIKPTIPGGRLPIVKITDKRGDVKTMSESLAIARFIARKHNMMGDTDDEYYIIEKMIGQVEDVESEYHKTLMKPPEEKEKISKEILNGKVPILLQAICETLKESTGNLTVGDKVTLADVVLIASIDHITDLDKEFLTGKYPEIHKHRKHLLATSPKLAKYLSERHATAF

[10] = tested on: Streptococcus sp. 'group A'; experiment: growth inhibition of control SK(-) GAS strain, dose response, counter-screen for streptokinase expression inhibitor project, luminescence, kanamycin, BacTiterGlo, confirmation (AID 1900); format: functional, organism-based
[11] = molecular target: T5, Heat shock factor protein 1 (Mus musculus, UniProt P38532); experiment: inhibition of MG132-induced HSE-luciferase signal, confirmation, cell-based, NIH3T3, luminescence, dose retest (AID 2382); format: functional;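 note: NIH3T3 fibroblasts with HSF1-driven luciferase reporter stressed by proteasome inhibitor MG132; luminescence from HSF1-driven luciferase expression after 8 hours of MG132 stress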
T5 sequence (P38532 whole entry): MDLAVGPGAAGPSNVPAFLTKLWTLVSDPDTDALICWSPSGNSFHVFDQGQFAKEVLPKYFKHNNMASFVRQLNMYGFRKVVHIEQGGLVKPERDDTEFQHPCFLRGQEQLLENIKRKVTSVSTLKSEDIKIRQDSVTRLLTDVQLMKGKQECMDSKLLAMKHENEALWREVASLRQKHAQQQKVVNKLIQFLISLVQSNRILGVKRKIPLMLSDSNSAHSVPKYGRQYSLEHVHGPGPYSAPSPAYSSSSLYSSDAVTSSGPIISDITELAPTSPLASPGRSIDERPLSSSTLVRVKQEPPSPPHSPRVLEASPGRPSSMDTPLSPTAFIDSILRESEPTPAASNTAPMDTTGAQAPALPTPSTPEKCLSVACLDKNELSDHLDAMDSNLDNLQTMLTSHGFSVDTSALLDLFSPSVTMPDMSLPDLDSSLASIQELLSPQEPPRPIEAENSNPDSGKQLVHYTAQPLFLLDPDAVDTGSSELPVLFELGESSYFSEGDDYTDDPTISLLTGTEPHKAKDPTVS

Streptokinase A = molecular target: T6, Streptokinase A (Streptococcus pyogenes serotype M1, UniProt P10520); experiment: S. pyogenes streptokinase expression inhibitors, potency, dose response, plasminogen activation absorbance, OD405 (AID 1914); format: functional, Streptococcus pyogenes M1 GAS;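 note: secreted streptokinase activity via plasminogen activation per viability signal from cell pellet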
T6 sequence (P10520 whole entry): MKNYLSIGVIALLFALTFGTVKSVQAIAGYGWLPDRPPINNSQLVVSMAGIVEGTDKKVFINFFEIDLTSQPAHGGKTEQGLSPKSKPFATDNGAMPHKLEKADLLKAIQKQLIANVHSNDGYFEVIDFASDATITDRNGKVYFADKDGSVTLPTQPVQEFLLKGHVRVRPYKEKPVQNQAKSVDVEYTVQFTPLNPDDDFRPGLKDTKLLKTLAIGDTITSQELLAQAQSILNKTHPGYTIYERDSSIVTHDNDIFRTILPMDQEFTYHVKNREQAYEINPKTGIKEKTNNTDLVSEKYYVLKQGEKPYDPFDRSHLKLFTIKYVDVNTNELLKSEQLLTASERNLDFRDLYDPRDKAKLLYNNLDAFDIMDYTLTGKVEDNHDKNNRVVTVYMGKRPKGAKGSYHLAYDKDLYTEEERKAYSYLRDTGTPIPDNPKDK

Streptococcus = experiment: Group A Streptococcus viability loss, dose response, counter-screen for streptokinase expression inhibitor project, luminescence, BacTiterGlo (AID 1915); format: functional, organism-based;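 note: potency for reduction of bacterial viability or growth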
[12] = Vero cell cytotoxicity, dose response, cytotoxicity control for Vif-APOBEC3G degradation inhibitor project, Vero cells (AID 1117358); format: functional; conditions: Human immunodeficiency virus 1, Vero
[13] = inhibitors of Vif binding to APOBEC3G peptide, primary screen, biochemical, TR-FRET, GST-Vif 1-94, biotin-A3G peptide, dose response retest (AID 1117319); format: functional;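 note: TR-FRET signal of purified GST-Vif binding a biotinylated A3G peptide; inhibitors lower the FRET signal by blocking Vif and A3G binding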
[14] = inhibitors of triacylglycerol buildup in H9c2 cells, dose response, cell-based, H9c2 rat cardiomyoblasts, Nile Red fluorescence, primary readout (AID 743161); format: functional
[15] = half-maximal inhibitory concentration for glucagon-like peptide-1 release, STC-1 cell line, dose-response (AID 1117345); format: functional, cell-based
[16] = Glucagon-like peptide 1 release potency, NCI-H716 cell line, dose-response, half-maximal inhibitory concentration (AID 1117344); format: functional, cell-based

For `O=C1C=C(Nc2cccc3cccnc23)c2ccccc2C1=O`, the EC50 [1] was 47.6 µM (active), the EC50 (BJ [2]) was 1.57 µM (inconclusive) and the EC50 [3] was 28.7 µM (active). For the same compound, the EC50 (BJ [4]) was 3.05 µM (active), the EC50 (BJ [5]) was 6.37 µM (inconclusive) and the EC50 [6] was 2.77 µM (inconclusive). The AC50 [7] was > 380 µM (inactive), the CC50 (Vero) was 4.45 µM (active) and the EC50 (Protein RecA) was 2.89 µM (active). The IC50 (Genome polyprotein) was 50.4 µM (active), the IC50 (Protein Tat) was > 100 µM (active) and the CC50 [8] was 0.34 µM (active). The IC50 [9] was > 100 µM (active).

In the case of `O=C(NC(=S)N1CCN(c2c(Cl)cccc2[N+](=O)[O-])CC1)c1cccs1`, the EC50 [10] is reported as 4.51 µM (active), the EC50 [11] is reported as > 195 µM (not active) and the EC50 (Streptokinase A) is reported as > 150 µM (not active). For the same compound, the EC50 (Streptococcus) was 10.2 µM (active) and the CC50 [12] was > 40 µM (active).

With `COc1cc(O)oc1/C=N/c1ccccc1` the IC50 [13] was > 100 µM (active).

For `COCCN1Cc2cccc(C(=O)NCc3cccc(N(C)C)c3)c2C1=O`, the IC50 [14] was > 50 µM (active).

With `CCN(CC)CCOC(=O)C(Cc1cccc2ccccc12)CC1CCCO1` (configuration not stated) [NAFRONYL OXALATE] the IC50 [15] was > 40 µM (inactive) and the IC50 [16] was > 40 µM (inactive).
